Assay results published in article PMC8921064 (Archives of Toxicology, 2022).
Several values for one entry are separate records, joined by “and”; a condition that tells them apart may be missing. Identical values can stand only once.

Key:
[1] = test system: rat liver microsomes (RLM); experiment: Rat liver microsomal incubation, metabolite formation quantified by UPLC; settings: RLM
Procedure: (§1) The incubation mixtures were prepared and incubated in glass vials to avoid plastic binding of the substrates. The glass vials were capped to prevent substrate loss due to volatility. After preincubation of the incubation mixture at 37 °C for 1 min, the enzymatic reaction was initiated by adding microsomes to the incubation mixture which was subsequently incubated at 37 °C for 20 min. The reaction was terminated by adding 100 µl ice-cold acetonitrile followed by vortexing. After 5 min centrifugation at 5000 rpm (4000 × g), 4 °C, the supernatant was collected for ultraperformance liquid chromatography (UPLC) analysis. […] Therefore, a diisopropylether (DIPE) extraction of the metabolites was performed after the reaction was stopped by the addition of 20 µl 10% HClO4. To this end, the incubation mixture (total volume of 220 µl) was extracted three times with 1 ml DIPE. Each time, the upper organic layer was collected and the DIPE was subsequently evaporated from the combined organic fractions with a gentle stream of nitrogen. The residues were dissolved in 100 µl methanol and analyzed by UPLC.
(§2) The metabolites formed were analyzed and quantified using an Acquity UPLC system equipped with a photodiode array (PDA) detector (Waters, Milford, MA). The metabolites and their parent compound were separated on a reverse phase Acquity UPLC® BEH C18 column ([…], 1.7 µm, Waters, Milford, MA) and detected at wavelengths ranging from 190 to 400 nm. Eluent A was nano-pure water containing 0.1% trifluoroacetic acid (v/v), and eluent B was acetonitrile containing 0.1% trifluoroacetic acid (v/v). The gradient elution started from 90% A and 10% B applied from 0.0 min to 0.5 min, which was changed to 0% A and 100% B from 0.5 to 15.5 min and then kept at 0% A and 100% B from 15.5 min to 18.5 min, changed back to 90% A and 10% B from 18.5 to 18.6 min and then maintained at the starting conditions from 18.6 min until 22 min. The total run time was 22 min using a flow rate of 0.6 ml/min. The temperature of the column was set at 40 °C and that of the autosampler at 10 °C during the UPLC analysis. The injection volume was 3.5 µl. Metabolites were quantified using their peak area at the wavelength specified in Table 1, using calibration curves of available reference compounds. Metabolites were identified by comparing their retention time (RT) and UV spectrum to those of reference chemicals on UPLC. When reference chemicals were not available, metabolite identification by gas chromatography-triple quadrupole mass spectrometry (GC–MS/MS) was performed. The minor metabolites were identified by elution time and mass spectra both on UPLC and GC–MS/MS, and by comparison with available elution and spectral information from the literature.
(§3) The metabolite concentrations in the microsomal incubation mixtures as quantified by UPLC were used to calculate the rate of the enzymatic conversions in pmol/min/mg microsomal protein. The kinetic parameters KM and Vmax were obtained using a nonlinear regression curve fit applying the Michaelis Menten equation in GraphPad Prism 5 (San Diego, USA). To compare the catalytic efficiency of formation of the different metabolites the intrinsic clearance (Clint) was calculated as Vmax divided by KM.

[2] = test system: human liver microsomes (HLM); experiment: Human liver microsomal incubation, metabolite formation quantified by UPLC; settings: HLM
Procedure: as §1, §2, §3

[3] = test system: Salmonella typhimurium TA100; experiment: Reverse mutation assay (Ames test), TA100; settings: positive control, 650 µg/plate MMS; mean ± SD of 3 plates
Procedure: (§4) Six concentrations of each compound were tested in triplicate in the absence and presence of 5% (v/v) S9-mix prepared from the livers of Aroclor 1254 treated Sprague–Dawley rats. The S9-mix contained 4 mM NADP, 5.8 mM glucose-6-phosphate, 0.1 M sodium phosphate pH 7.4, 8 mM MgCl2, 33 mM KCl and 5% S9 homogenate. Fresh bacterial cultures were prepared overnight to reach 10^9 cells/ml. The following solutions were pre-incubated in a rotating incubator at 70 rpm and 37 °C, and contained either 0.5 ml S9-mix (in case of S9 presence) or 0.5 ml 0.1 M potassium phosphate pH 7.4 (in case of S9 absence), 0.1 ml of a fresh bacterial culture (10^9 cells/ml) of TA98 or TA100, and 10–100 µg test compound. Top agar was melted and heated to 45 °C. After preincubation, the substrate solutions were added to 3 ml of the molten top agar and mixed by vortexing and the top agar mixture was poured onto a minimal glucose agar plate. After solidification of the top agar, the plates were incubated at 37 °C for 48 h. The number of revertant colonies per plate was automatically counted with the Instem Sorcerer Colony Counter (Staffordshire, UK). In the absence of S9-mix, 2-nitrofluorene (NF) and methylmethanesulfonate (MMS) were tested as positive controls for incubations with TA98 and TA100, respectively. In the presence of S9-mix, 2-aminoanthracene (2AA) was tested as a positive control in both TA98 and TA100. DMSO was tested as a solvent control in both tester strains.

[4] = test system: Salmonella typhimurium TA98; experiment: Reverse mutation assay (Ames test), TA98; settings: positive control, 10 µg/plate NF; mean ± SD of 3 plates
Procedure: as §4, with “and 10–100 µg test compound.” left out

[5] = 0 to 600 μM, 20 min, NM = no metabolism
[6] = substrate 1-N-hexylphenanthrene
[7] = substrate 10-Methyl-9-ethylphenanthrene

In the case of `CCCCCCCCCCCCc1cccc2c1ccc1ccccc12` [1-N-dodecylphenanthrene, 1-n-dodecylphenanthrene], the “Metabolic conversion (metabolites formed)” value [1, 5] is reported as “No metabolic conversion was observed” and the “Metabolic conversion (metabolites formed)” value [2, 5] is reported as “No metabolic conversion was observed”.
`CCCCCCc1cccc2c1ccc1ccccc12` [1-N-hexylphenanthrene, 1-n-Hexylphenanthrene] was tested, and the “Vmax, formation of 1-Hydroxyhexyl-phenanthrene RT = 8.45 min” value [1, 6] was 103.4 ± 18.1 pmol/min/mg microsomal protein, the “Vmax, formation of 1-Hydroxyhexyl-phenanthrene RT = 8.58 min” value [1, 6] was 54.8 ± 5.2 pmol/min/mg microsomal protein and the “Vmax, formation of 1-Hydroxyhexyl-phenanthrene RT = 8.82 min” value [1, 6] was 25.6 ± 1.8 pmol/min/mg microsomal protein. The “Vmax, formation of 1-Hydroxyhexyl-phenanthrene RT = 9.13 min” value [1, 6] was 11.7 ± 0.9 pmol/min/mg microsomal protein, the “Vmax, formation of 1-Hydroxyhexyl-phenanthrene RT = 8.45 min” value [2, 6] was 48.3 ± 6.1 pmol/min/mg microsomal protein and the “Vmax, formation of 1-Hydroxyhexyl-phenanthrene RT = 8.82 min” value [2, 6] was 44.2 ± 4.8 pmol/min/mg microsomal protein.
For `CCc1ccc2c(ccc3ccccc32)c1` [2-Ethylphenanthrene], the “Vmax, formation of 2-(1-Hydroxyethyl)-phenanthrene RT = 6.21 min” value ([1]; substrate 2-Ethylphenanthrene) was 3149.0 ± 266.1 pmol/min/mg microsomal protein, the “Vmax, formation of 2-Ethylphenanthrol RT = 7.57 min” value ([1]; substrate 2-Ethylphenanthrene) was 16.5 ± 3.1 pmol/min/mg microsomal protein and the “Vmax, formation of 2-Ethylphenanthrol RT = 7.74 min” value ([1]; substrate 2-Ethylphenanthrene) was 16.6 ± 2.7 pmol/min/mg microsomal protein. For the same molecule, the “Vmax, formation of 2-Ethylphenanthrol RT = 7.89 min” value ([1]; substrate 2-Ethylphenanthrene) was 11.8 ± 2.4 pmol/min/mg microsomal protein, the “Vmax, formation of Dihydro-2-ethylphenanthrene-diol RT = 4.6 min” value ([1]; substrate 2-Ethylphenanthrene) was 33.9 ± 11.8 pmol/min/mg microsomal protein and the “Vmax, formation of Dihydro-2-ethylphenanthrene-diol RT = 5.29 min” value ([1]; substrate 2-Ethylphenanthrene) was 42.9 ± 3.5 pmol/min/mg microsomal protein. The “Vmax, formation of Unknown metabolite RT = 9.38 min” value ([1]; substrate 2-Ethylphenanthrene) was 238.0 ± 23.9 pmol/min/mg microsomal protein, the “Vmax, formation of 2-(1-Hydroxyethyl)-phenanthrene RT = 6.21 min” value ([2]; substrate 2-Ethylphenanthrene) was 468.8 ± 50.3 pmol/min/mg microsomal protein and the “Vmax, formation of Dihydro-2-ethylphenanthrene-diol RT = 5.16 min” value ([2]; substrate 2-Ethylphenanthrene) was 18.4 ± 3.2 pmol/min/mg microsomal protein. For the same molecule, the “Vmax, formation of Dihydro-2-ethylphenanthrene-diol RT = 5.29 min” value ([2]; substrate 2-Ethylphenanthrene) was 22.1 ± 3.0 pmol/min/mg microsomal protein and the “Vmax, formation of Unknown metabolite RT = 9.38 min” value ([2]; substrate 2-Ethylphenanthrene) was 37.2 ± 6.5 pmol/min/mg microsomal protein.
With `CCc1cc2ccccc2c2ccccc12` [9-Ethylphenanthrene] the “Vmax, formation of 9-(1-Hydroxyethyl)-phenanthrene RT = 6.20 min” value ([1]; substrate 9-Ethylphenanthrene) was 1206 ± 47.9 pmol/min/mg microsomal protein, the “Vmax, formation of 9-(2-Hydroxyethyl)-phenanthrene RT = 6.00 min” value ([1]; substrate 9-Ethylphenanthrene) was 37.0 ± 2.26 pmol/min/mg microsomal protein and the “Vmax, formation of 9-Ethylphenanthrol RT = 7.42 min” value ([1]; substrate 9-Ethylphenanthrene) was 29.7 ± 3.1 pmol/min/mg microsomal protein. The “Vmax, formation of 9-Ethylphenanthrol RT = 7.58 min” value ([1]; substrate 9-Ethylphenanthrene) was 56.6 ± 1.8 pmol/min/mg microsomal protein, the “Vmax, formation of 9-Ethylphenanthrol RT = 7.93 min” value ([1]; substrate 9-Ethylphenanthrene) was 22.8 ± 1.8 pmol/min/mg microsomal protein and the “Vmax, formation of Dihydro-9-ethylphenanthrene-diol RT = 3.81 min” value ([1]; substrate 9-Ethylphenanthrene) was 12.0 ± 2.1 pmol/min/mg microsomal protein. The “Vmax, formation of Unknown metabolite RT = 9.35 min” value ([1]; substrate 9-Ethylphenanthrene) was 52.7 ± 6.2 pmol/min/mg microsomal protein, the “Vmax, formation of 9-(1-Hydroxyethyl)-phenanthrene RT = 6.20 min” value ([2]; substrate 9-Ethylphenanthrene) was 267.7 ± 17.4 pmol/min/mg microsomal protein and the “Vmax, formation of 9-(2-Hydroxyethyl)-phenanthrene RT = 6.00 min” value ([2]; substrate 9-Ethylphenanthrene) was 61.4 ± 3.3 pmol/min/mg microsomal protein. For the same molecule, the “Vmax, formation of 9-Ethylphenanthrol RT = 7.42 min” value ([2]; substrate 9-Ethylphenanthrene) was 12.8 ± 1.1 pmol/min/mg microsomal protein, the “Vmax, formation of 9-Ethylphenanthrol RT = 7.58 min” value ([2]; substrate 9-Ethylphenanthrene) was 29.1 ± 2.8 pmol/min/mg microsomal protein and the “Vmax, formation of Dihydro-9-ethylphenanthrene-diol RT = 3.81 min” value ([2]; substrate 9-Ethylphenanthrene) was 15.2 ± 0.8 pmol/min/mg microsomal protein. For the same molecule, the “Vmax, formation of Dihydro-9-ethylphenanthrene-diol RT = 3.88 min” value ([2]; substrate 9-Ethylphenanthrene) was 23.5 ± 1.4 pmol/min/mg microsomal protein.
`CCc1c(C)c2ccccc2c2ccccc12` [10-Methyl-9-ethylphenanthrene] was tested, and the “Vmax, formation of 9-(1-Hydroxyethyl)-10-methylphenanthrene RT = 6.65 min” value [1, 7] was 630.2 ± 81.4 pmol/min/mg microsomal protein, the “Vmax, formation of 9-(2-Hydroxyethyl)-10-methylphenanthrene RT = 6.5 min” value [1, 7] was 21.0 ± 3.1 pmol/min/mg microsomal protein and the “Vmax, formation of 9-Ethyl-10-(1-hydroxymethyl)-phenanthrene RT = 6.90 min” value [1, 7] was 85.8 ± 11.6 pmol/min/mg microsomal protein. For the same molecule, the “Vmax, formation of 9-Ethyl-10-methylphenanthrol RT = 7.82 min” value [1, 7] was 65.6 ± 9.8 pmol/min/mg microsomal protein, the “Vmax, formation of 9-Ethyl-10-methylphenanthrol RT = 8.3 min” value [1, 7] was 29.4 ± 7.7 pmol/min/mg microsomal protein and the “Vmax, formation of Dihydro-10-methyl-9-ethylphenanthrene-diol RT = 4.29 min” value [1, 7] was 6.4 ± 2.7 pmol/min/mg microsomal protein. The “Vmax, formation of Dihydro-10-methyl-9-ethylphenanthrene-diol RT = 4.34 min” value [1, 7] was 8.09 ± 1.6 pmol/min/mg microsomal protein, the “Vmax, formation of 9-(1-Hydroxyethyl)-10-methylphenanthrene RT = 6.65 min” value [2, 7] was 187.1 ± 45.2 pmol/min/mg microsomal protein and the “Vmax, formation of 9-(2-Hydroxyethyl)-10-methylphenanthrene RT = 6.5 min” value [2, 7] was 12.9 ± 1.8 pmol/min/mg microsomal protein. The “Vmax, formation of 9-Ethyl-10-(1-hydroxymethyl)-phenanthrene RT = 6.90 min” value [2, 7] was 85.9 ± 17.4 pmol/min/mg microsomal protein, the “Vmax, formation of Dihydro-10-methyl-9-ethylphenanthrene-diol RT = 4.29 min” value [2, 7] was 7.2 ± 1.7 pmol/min/mg microsomal protein and the “Vmax, formation of Dihydro-10-methyl-9-ethylphenanthrene-diol RT = 4.34 min” value [2, 7] was 10.5 ± 2.5 pmol/min/mg microsomal protein.
For `COS(C)(=O)=O` [MMS, methylmethanesulfonate, reference compound], the “His + revertant colonies TA100 without S9-mix” value [3] was 868±70 and 823±58 and 783±46.
For `O=[N+]([O-])c1ccc2c(c1)Cc1ccccc1-2` [NF, 2-nitrofluorene, reference compound], the “His + revertant colonies TA98 without S9-mix” value [4] was 1590±295.
